The target in the assay is GLP-1R (Homo sapiens, UniProt P43220). The experiment in a line: GLP-1R Activation - cAMP Assay. Particulars: cAMP increase in CHO cells stably expressing GLP-1R; each compound run on one of the two cAMP assays (Assay 1 or Assay 2, not specified). The class given is cell-based. A digest of the protocol: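 cAMP rise read by HTRF after 30 min agonist exposure (10-point titration, 37 °C) in HBSS/20 mM Hepes/0.1% BSA, following 1 h pre-incubation. Cells: stable GLP-1R CHO line, 1,000/well, seeded overnight. Sigmoidal fit of response vs log concentration gives EC50.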
Chain of GLP-1R (P43220 24-463): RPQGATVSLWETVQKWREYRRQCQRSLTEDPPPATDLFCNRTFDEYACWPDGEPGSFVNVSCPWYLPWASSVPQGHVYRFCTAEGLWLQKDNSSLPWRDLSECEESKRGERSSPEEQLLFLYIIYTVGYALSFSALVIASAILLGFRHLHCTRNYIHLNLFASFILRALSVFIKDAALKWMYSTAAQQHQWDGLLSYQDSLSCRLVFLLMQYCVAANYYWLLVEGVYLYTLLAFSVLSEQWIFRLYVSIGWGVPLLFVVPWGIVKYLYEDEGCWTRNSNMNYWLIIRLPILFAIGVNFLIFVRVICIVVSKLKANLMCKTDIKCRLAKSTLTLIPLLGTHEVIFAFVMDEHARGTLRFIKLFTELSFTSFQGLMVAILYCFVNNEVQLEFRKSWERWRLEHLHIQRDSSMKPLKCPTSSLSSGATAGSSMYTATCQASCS
(cAMP levels reflect the balance of adenylyl cyclase and phosphodiesterase activity.)
Take `CC1(C)COCC1n1c(Cc2cc(F)c(-c3cccc(OCc4c(F)cc(Cl)cc4F)n3)cc2F)nc2c(F)cc(C(=O)O)cc21` (stereo not drawn) [Example 499, 2-(4-(6-((4-chloro-2,6-difluorobenzyl)oxy)pyridin-2-yl)-2,5-difluorobenzyl)-1-(4,4-dimethyltetrahydrofuran-3-yl)-4-fluoro-1H-benzo[d]imidazole-6-carboxylic acid]: the midpoint of the response, the EC50, lay at 0.508 nM. In other words, the sub-nanomolar range.
Take `CC1(C)COC[C@H]1n1c(Cc2cc(F)c(-c3cccc(OCc4ccc(C#N)c(F)c4F)n3)cc2F)nc2c(F)cc(C(=O)O)cc21` [Example 500, (S)-2-(4-(6-((4-cyano-2,3-difluorobenzyl)oxy)pyridin-2-yl)-2,5-difluorobenzyl)-1-(4,4-dimethyltetrahydrofuran-3-yl)-4-fluoro-1H-benzo[d]imidazole-6-carboxylic Acid]: the concentration for a half-maximal effect (EC50) (as a rule, the concentration that produces a half-maximal response) came out at 0.203 nM. This EC50 is about 2.5-fold lower than that of the compound before.
The same measure for `CC1(C)COCC1n1c(Cc2cc(F)c(-c3cccc(OCc4cc(F)c(Cl)cc4F)n3)cc2F)nc2c(F)cc(C(=O)O)cc21` (stereo not drawn) [Example 501, 2-(4-(6-((4-chloro-2,5-difluorobenzyl)oxy)pyridin-2-yl)-2,5-difluorobenzyl)-1-(4,4-dimethyltetrahydrofuran-3-yl)-4-fluoro-1H-benzo[d]imidazole-6-carboxylic acid]: 0.508 nM; for `CC1(C)COCC1n1c(Cc2cc(F)c(-c3ccc(F)c(OCc4ccc(C(F)(F)F)cc4F)n3)cc2F)nc2c(F)cc(C(=O)O)cc21` (stereo not drawn) [Example 503, 2-(2,5-difluoro-4-(5-fluoro-6-((2-fluoro-4-(trifluoromethyl)benzyl)oxy)pyridin-2-yl)benzyl)-1-(4,4-dimethyltetrahydrofuran-3-yl)-4-fluoro-1H-benzo[d]imidazole-6-carboxylic acid]: 0.081 nM.
The same measure for `CC1(C)COCC1n1c(Cc2cc(F)c(-c3ccnc(OCc4ccc(C(F)F)cc4F)n3)cc2F)nc2c(F)cc(C(=O)O)cc21` (stereo not drawn) [Example 504, 2-(4-(2-((4-(difluoromethyl)-2-fluorobenzyl)oxy)pyrimidin-4-yl)-2,5-difluorobenzyl)-1-(4,4-dimethyltetrahydrofuran-3-yl)-4-fluoro-1H-benzo[d]imidazole-6-carboxylic acid]: 0.148 nM; for `CC1(C)COCC1n1c(Cc2cc(F)c(-c3cccc(OCc4ccc(C(F)F)cc4F)n3)cc2F)nc2c(F)cc(C(=O)O)cc21` (stereo not drawn) [Example 506, 2-(4-(6-((4-(difluoromethyl)-2-fluorobenzyl)oxy)pyridin-2-yl)-2,5-difluorobenzyl)-1-(4,4-dimethyltetrahydrofuran-3-yl)-4-fluoro-1H-benzo[d]imidazole-6-carboxylic acid]: 0.242 nM.
The same measure for `COC(C)(C)C(C)n1c(Cc2cc(F)c(-c3cccc(OCc4ccc(Cl)cc4F)n3)cc2F)nc2ccc(C(=O)O)cc21` (stereo not drawn) [Example 507, 2-(4-(6-((4-chloro-2-fluorobenzyl)oxy)pyridin-2-yl)-2,5-difluorobenzyl)-1-(3-methoxy-3-methylbutan-2-yl)-1H-benzo[d]imidazole-6-carboxylic acid]: 0.351 nM; for `CC1(C)COC[C@H]1n1c(Cc2cc(F)c(-c3cccc(OCc4ccc(Cl)cc4F)c3)cc2F)nc2ccc(C(=O)O)cc21` [Example 508, (S)-2-((3′-((4-chloro-2-fluorobenzyl)oxy)-2,5-difluoro-[1,1′-biphenyl]-4-yl)methyl)-1-(4,4-dimethyltetrahydrofuran-3-yl)-1H-benzo[d]imidazole-6-carboxylic acid]: 0.302 nM; for `CC1(C)COC[C@H]1n1c(Cc2cc(F)c(-c3ccc(F)c(OCc4ccc(Cl)cc4F)c3)cc2F)nc2ccc(C(=O)O)cc21` [Example 509, (S)-2-((3′-((4-chloro-2-fluorobenzyl)oxy)-2,4′,5-trifluoro-[1,1′-biphenyl]-4-yl)methyl)-1-(4,4-dimethyltetrahydrofuran-3-yl)-1H-benzo[d]imidazole-6-carboxylic acid]: 0.144 nM.
